# Data taken from paper PMC9124866, “Structure-Activity Relationships of Dopamine Transporter Pharmacological Chaperones” (Frontiers in Cellular Neuroscience, 2022).
# Experiments:
# K590A DAT = biological target: T1, K590A DAT (Homo sapiens, UniProt Q01959, K590A); assay: Western blot of mature K590A DAT protein levels; format: cell-based; settings: overnight treatment
# T1 construct: expressed in transfected cells; host or cells: HEK293
# Procedure: Cells (1 × 10^6 cells/well) were seeded onto a 6-well plate and incubated for 24 h. Cells were then treated with drugs and incubated for 16 h. After the incubation period, cells were lysed in RIPA buffer supplemented with protease inhibitors (working concentrations: pepstatin A, 5 μg/mL; leupeptin, 10 μg/mL; aprotinin, 1.5 μg/mL; benzamidine, 0.1 μg/mL; PMSF, 0.1 mM) on ice. At 4°C, cell lysates were gently shaken for 15 min followed by centrifugation at 15,000 rpm for 15 min to pellet debris. The Pierce BCA protein assay kit (Thermo Fisher Scientific, Canada) was used to determine the protein concentration of the supernatant. To reach a concentration of 40 μg of protein per 20 μL, samples were diluted in fresh RIPA buffer with 12.5% Laemmli sample buffer and 2.5% β-Mercaptoethanol prior to being heated to 55°C. The protein was then loaded on a 7.5 or 10% SDS-PAGE gel and run at 100 V for approximately an hour or until the dye front reached the bottom of the gel. Next, protein was transferred to a PVDF membrane at 22 V for 16 h or 100 V for 1 h. Blots were blocked with LI-COR blocking buffer for 1 h and incubated for 1 h at room temperature with rabbit anti-GFP (1:1,000 dilution; Life Technologies, cat#A11122). After washing three times with TBST, blots were incubated with goat anti-rabbit IRDye-680RD secondary antibody (1:15,000; LI-COR, cat#926-68071). As a loading control, blots were incubated with mouse anti-GAPDH (1:5,000, Sigma-Aldrich, Canada, cat#G8795) prior to secondary antibody goat anti-mouse IRDye-800GR (1:5,000 dilution, Rockland, Limerick, PA, cat#610-132-007). All antibodies were diluted in LI-COR blocking buffer. Additionally, REVERT total protein staining (LI-COR, Lincoln, NE) was used as a loading control. […] Mature, fully glycosylated DAT (mDAT = 110 kDa) and immature, ER-resident DAT (iDAT = 75 kDa) were visualized using the Odyssey Imaging System (LI-COR, Lincoln, NE) and Image Studio Version 5.2 software (Supplementary Figure 1).
# We next assessed whether drugs that increase DAT surface expression also increase total protein levels of DAT. Cells expressing YFP-HA-DAT were incubated with select test compounds and DAT protein levels were examined by western blot. The effects of the compounds were assessed on WT DAT and K590A DAT. The K590A mutant is a well-characterized ER-retained, trafficking-deficient DAT mutant ([Miranda et al., 2004]) that can be rescued by pharmacological chaperones ([Beerepoot et al., 2016]).
# FIGURE 5 Effect of noribogaine, tetrahydroharmine, PAL-594, bicifadine, and RTI-20 on WT and K590A DAT expression. […] (B) Quantification of WT mDAT protein levels. […] (D) Quantification of K590A mDAT protein levels. […]
# YFP-HA-βlac-DAT = YFP-HA-βlac-DAT (Homo sapiens, UniProt Q01959); assay: β-lactamase (βlac) surface expression assay; format: cell-based; settings: HEK293, read-out: EMax (%), WT DAT surface expression, HEK cells expressing YFP-HA-βlac-DAT, overnight (16 h) incubation, up to 100 μM, normalized to vehicle; assumed effective EMax
# Sequence of YFP-HA-βlac-DAT (Q01959 1-171 limits assumed): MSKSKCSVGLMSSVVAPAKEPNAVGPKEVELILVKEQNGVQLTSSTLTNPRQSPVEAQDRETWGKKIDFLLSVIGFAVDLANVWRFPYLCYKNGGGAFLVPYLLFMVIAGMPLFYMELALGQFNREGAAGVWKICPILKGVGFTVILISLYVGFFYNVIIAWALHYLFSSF
# Sequence of YFP-HA-βlac-DAT (Q01959 237-620 limits assumed): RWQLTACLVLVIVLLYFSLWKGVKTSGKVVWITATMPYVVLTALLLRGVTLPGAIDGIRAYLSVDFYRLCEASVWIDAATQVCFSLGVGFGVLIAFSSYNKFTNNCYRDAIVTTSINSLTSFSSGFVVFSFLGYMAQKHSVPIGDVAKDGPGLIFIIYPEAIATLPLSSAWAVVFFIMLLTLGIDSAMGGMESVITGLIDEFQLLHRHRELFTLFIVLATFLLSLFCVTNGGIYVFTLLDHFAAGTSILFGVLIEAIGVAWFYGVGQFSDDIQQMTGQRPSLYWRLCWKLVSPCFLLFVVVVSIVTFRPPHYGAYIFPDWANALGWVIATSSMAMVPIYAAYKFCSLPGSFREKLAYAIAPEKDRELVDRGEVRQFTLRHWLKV
# Procedure: The βlac surface expression assay was performed by following the method outlined in [Lam et al. (2013)] and [Beerepoot et al. (2015], [2016)]. The assay substrate nitrocefin (BD biosciences) was dissolved in dimethyl sulfoxide (DMSO) at a concentration of 10 mM and frozen at −80°C. Immediately before use, it was thawed and diluted to a final concentration of 100 μM in phosphate buffered saline (PBS). Cells (1 × 10^5/well) were seeded into a poly-D-lysine-coated 48-well plate and incubated for 24 h, prior to drug treatment. Drugs were added to individual wells at varying concentrations and incubated for 16 h. Subsequently, the media was aspirated, and the cells were washed twice with PBS. After removal of the final PBS wash, 200 μL of the nitrocefin solution was added to each well and the absorbance was immediately read. The EPOCH microplate spectrophotometer (BioTek) was used to measure absorbance (486 nm) for each well every minute for 30 min. The rate of reaction (slope of the curve) was used as the readout for the assay ([Beerepoot et al., 2015]). To determine suitable concentration ranges for each drug, they were dissolved in PBS or DMSO at the highest concentration possible. From here, the solutions were serial diluted 1/10 to yield 8 different concentrations. βLAC cells were then treated with the varying drug concentrations and cell viability was recorded using light microscopy. For additional measure, nitrocefin was added and the absorbance was read. For certain cases, Trypan Blue was used to quantitatively differentiate increased cell death from reduced cell division. […] Five or six doses were generally used in subsequent dosing experiments, starting at the highest non-toxic concentration.
# Data analysis was performed using GraphPad Prism (GraphPad Software, La Jolla, CA). Linear regression analysis was performed on βLAC time points to determine the slope, thus the rate of reaction, for comparison. Furthermore, the slope was also used to determine the degree of dopamine uptake in the dopamine uptake assays. Non-linear regression, fitting to the log(agonist) vs. response and log(inhibitor) vs. response model curve, was used to determine dose-response relationships of surface expression and uptake assays, respectively. One-way ANOVA with Dunnett’s post hoc-test was used for the β-lactamase assay and one-way ANOVA with Bonferroni correction was used for western blot analysis.
# Among these were RTI-1, RTI-2, RTI-5, RTI-6, RTI-11, RTI-20, and PAL-1007. […] The EMax values of all the analyzed drugs are included in Figure 1.
# The pharmacological chaperone ability of the 15 ibogaine and tryptamine analogs, shown in Figure 3, were measured using the βlac surface expression assay. HEK cells expressing YFP-HA-βlac-DAT were incubated overnight with these compounds at concentrations varying by log and half-log dilutions, starting at 100 μM final concentration. […] Furthermore, it was important to determine whether the β-carboline analogs could also elicit a chaperone effect because they are not classified as DAT ligands ([Cao et al., 2007]). […] Removing the nitrogen from the ring reduced efficacy as observed with frovatriptan (103 ± 1.4%). […] Evodiamine (54 ± 1.7%) had no chaperone ability and caused a substantial reduction in the surface expression of DAT. Dose-response curves were generated to assess the pharmacological chaperone potencies of select compounds (Figure 4).
# T1 sequence (Q01959 whole entry K590A): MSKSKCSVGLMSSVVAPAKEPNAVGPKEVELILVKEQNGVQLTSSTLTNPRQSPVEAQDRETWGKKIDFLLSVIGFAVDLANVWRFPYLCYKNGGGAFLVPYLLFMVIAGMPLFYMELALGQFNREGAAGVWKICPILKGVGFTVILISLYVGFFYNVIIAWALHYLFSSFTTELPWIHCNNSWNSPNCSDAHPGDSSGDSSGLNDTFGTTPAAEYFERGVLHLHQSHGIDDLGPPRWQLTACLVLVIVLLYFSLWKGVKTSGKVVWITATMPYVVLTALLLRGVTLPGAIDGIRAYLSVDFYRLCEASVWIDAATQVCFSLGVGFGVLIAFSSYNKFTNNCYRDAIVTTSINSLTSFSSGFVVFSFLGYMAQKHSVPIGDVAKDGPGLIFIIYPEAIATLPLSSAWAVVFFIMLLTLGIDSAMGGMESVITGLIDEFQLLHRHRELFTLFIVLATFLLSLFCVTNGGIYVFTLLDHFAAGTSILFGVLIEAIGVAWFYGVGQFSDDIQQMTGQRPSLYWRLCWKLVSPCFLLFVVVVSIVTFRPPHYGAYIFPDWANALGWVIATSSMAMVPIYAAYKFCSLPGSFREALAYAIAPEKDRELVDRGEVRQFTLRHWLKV
compound,measurement,setting,value
"CCC1CC2CC3c4[nH]c5ccc(O)cc5c4CCN(C2)C13 (centres unmarked) [Noribogaine, reference compound]",K590A DAT (mDAT) protein levels,K590A DAT,statistically significant effect
same,Emax,YFP-HA-βlac-DAT,251 ± 17.8%
